Assays:
[1] = Sustained drug release from PLC films / sandwich constructions; assay type: physicochemical
rabbit eyes = details: in vivo
Experimental: We obtained approval from the SingHealth Institute Animal Care and Use Committee (IACUC Singhealth Approval Number 2009/SHS/478) and all procedures were performed in accordance with the ARVO Statement for the Use of Animals in Ophthalmic and Vision Research. Nine New Zealand white rabbits (18 eyes) were used aged 4-6 months old with a weight range of 2-2.5 kg each. Each rabbit was anesthetized with intraperitoneal injection of ketamine hydrochloride (35-50 mg/kg) and Xylazil (5-10 mg/kg). After the animal had been adequately anaesthetized, the eye was cleaned with povidone-iodine (10%) and draped with sterile cloth. […]
Visual inspection of the operated eyes was conducted daily following surgery. […] All clinical and ocular observations were recorded on a chart. The test animals were also monitored for any gross changes such as eye discharge, squinting and, ocular discomfort. […]
Anterior segment photographs and anterior segment optical coherence tomography (AS-OCT, Visante OCT, Carl Zeiss Meditec Inc., Germany) of the implanted eyes was performed at monthly intervals. […] The site of conjunctival elevation from the microfilm was determined by the location of a light reflex over the conjunctiva during image acquisition. In cases where the light reflex was absent, the observer manually assessed the surface of the microfilm to select a radius that contained elevation. […]

CC(C)OC(=O)CCC/C=C\C[C@@H]1[C@@H](CC[C@@H](O)CCc2ccccc2)[C@H](O)C[C@@H]1O [Latanoprost]
Duration of delivery ([1]; from PLC films): 10 days

C[C@]12C=CC(=O)C=C1CC[C@@H]1[C@@H]2[C@@H](O)C[C@@]2(C)[C@H]1CC[C@]2(O)C(=O)CO [Prednisolone]
Duration of controlled release ([1]; from PLC (70/30 copolymer of PLA and PCL)): 100 days

CCCC(CCC)C(=O)O [valproic acid]
Duration of controlled release ([1]; 1% and 2% sandwich constructions (multi-layered implant)): 20 days

Poly(d,l-lactide-co-e-caprolactone) [PLC70/30]
mean increase in vascularity grade (rabbit eyes): 15±0.6%
mean percent increase in ocular score (rabbit eyes): 15±0.6%

Source: US9782346B2, “Biodegradable ocular implant” (Nanyang Technological University, priority 2010, dated 2017)
